Data as given in patent publication US8741949B2, “Inhibitors of carnitin-palmitoyl-tranferase-1 for the treatment and prevention of disorders caused by delipidation of neural tissue” (Meta-IQ ApS, priority 2008, dated 2014).

Key:
Format in all cases: in vivo, rat
Male Wistar rats [1] = assay: Y-maze short term memory test (spontaneous alternation), MK-801 induced memory loss
Description: (§1) Male Wistar rats were purchased from Taconic, Denmark. Animal weight was close to 300 g. The animals were singly housed. Food and water was available ad libitum.
Spontaneous alternation. A Y-maze was used to assess (without food deprivation or other aversive procedures) the normal navigation behaviors of rodents. All arm entries are sequentially scored so that the total number of arm entries, as well as the sequence of entries, are recorded. Data are analyzed to determine the number of arm entries without repetition.
On the day of testing, the rats are given subcutaneous injection of either vehicle (n=9), 0.1 mg/kg MK-801 (n=8) or 0.1 mg/kg MK-801 (also known as Dizocilpine) and the CPT-1 inhibitor Etomoxir 1 mg/kg (1 mg/ml etomoxir ester dilution in olive oil, n=5) 1 hour before the testing (to avoid the MK-801 induced hyperactivity).

Male Wistar rats [2] = assay: Passive avoidance test (long term memory), MK-801 induced memory loss; conditions: retention test 24 h later
Excerpt: as §1
In order to test long term memory, a passive avoidance apparatus was used. The passive avoidance apparatus consist of 2 compartments: a white compartment and a black compartment, which are separated by guillotine doors. There is a lamp hanging 10 cm above the white compartment and there is a lid covering the black compartment. The black compartment contains a stainless steel grid floor.
The test was performed in the lab where the rats normally live, and all the rats were present in the room all the time during the experiment. The apparatus was placed a little bit above the floor on 2 cages. The electrical current strength was adjusted to 0.36 mA and the duration was 5 sec. […] All the rats are weighted one day before the experiment, the concentration of MK-801 per mean body weight is calculated and the dilutions are prepared
The rats are given subcutaneous injection of either vehicle (n=4), 0.1 mg/kg MK-801 (n=8) or 0.1 mg/kg MK-801 and etomoxir 1 mg/kg (1 mg/ml etomoxir ester dilution in olive oil, n=10) 1 hour before the training (to avoid the MK-801 induced hyperactivity). […] After 20 sec the doors are lifted and the time to enter the black compartment is measured. […]

Male Wistar rats [3] = assay: Chronic mild stress (CMS) model of depression, sucrose consumption test; conditions: 4 mg/kg etomoxir in oil i.p. daily
Excerpt: For a prolonged period rats are submitted to a succession of mild stressors. Consequently rats enter a depression-like state (anhedoina), however, upon concomitant treatment with antidepressants a fraction of rats recovers over time (Jayatissa et al., 2006). Time point of onset of antidepressant action correlates well to therapeutic action in the clinic and also drug efficacy, measured as a reduction in number of rats resistant to drug treatment, is addressed in the model. Male Wistar rats were purchased from Taconic, Denmark. Animal weight was close to 200 g when adaptation for sucrose consumption was initiated, and approximately 350 g at the start of stress regime. The animals were singly housed, except when grouping was applied as a stress parameter. Food and water was available ad libitum except when food or/and water deprivation was applied as a stress parameter. The standard 12-h light/dark cycle was only changed in course of stress regime. The animals were first trained to consume a palatable sucrose solution (1.5%). The training lasted 5 weeks. In this period the sucrose test was made twice a week during the first 3 weeks and once a week during the last two weeks. […] Percentage well being is calculated as follows: Test=Average Sucrose consumption animals in test group Control=Average Sucrose used animal control group Percentage well being=(Test/control)×100%

SMILES | Y-maze scores of the animals with nearly perfect memory (Male Wistar rats [1]; Etomoxir 1 mg/kg s.c. with 0.1 mg/kg MK-801, 1 hour before testing) | animals with nearly perfect memory (Male Wistar rats [1]; Etomoxir 1 mg/kg s.c. with 0.1 mg/kg MK-801, 1 hour before testing, n=5) | effect on the induced loss of short term memory (Male Wistar rats [1]; one subcutaneous injection, Etomoxir 1 mg/kg with 0.1 mg/kg MK-801, 1 hour before testing, FIG. 2) | animals with restored long term memory (Male Wistar rats [2]; one subcutaneous injection, etomoxir 1 mg/kg with 0.1 mg/kg MK-801, 1 hour before training, n=10, FIG. 3) [%] | animals responding to the treatment (at least 90% of pre-stress sucrose consumption) (Male Wistar rats [3]; stressed rats n=20, FIG. 6) | time of treatment until animals responded like normal non-depressed animals (percentage well being, sucrose consumption) (Male Wistar rats [3]; stressed rats, earliest time point measured, FIG. 5) [week] | highest Y-maze score in the group (Male Wistar rats [1]; 0.1 mg/kg MK-801 + vehicle s.c., 1 hour before testing, n=8) [%] | animals with measurable long term memory (Male Wistar rats [2]; 0.1 mg/kg MK-801 s.c. 1 hour before training, n=8)
CCOC(=O)C1(CCCCCCOc2ccc(Cl)cc2)CO1 (centres unmarked) [Etomoxir, 2-(6-(4-chlorophenoxy)hexyl)oxirane-2-carboxylic acid ethyl ester] | 92-100% | Sixty | restore the loss of short term memory | 40 | about 70% | ≤ 1 | – | –
C[C@]12N[C@H](Cc3ccccc31)c1ccccc12 [MK-801] | – | – | – | – | – | – | 66 | None
